Results: paper PMC6290480 (Cannabis and Cannabinoid Research, 2018)
Values after ≈ are worked out from the molar mass of the structure shown. Read-outs that look alike come from different tables or passages of the source.

Legend:
[1] = molecular target: T1, CB1 (Homo sapiens, UniProt P21554); experiment: biochemical; type: binding; conditions: for α (binding cooperativity factor): cooperativity with orthosteric agonist [3H]CP55,940, α >1 positive allosteric modulator
T1 construct: expressed in transfected cells; host or cells: HEK293T cells, transient calcium phosphate transfection, pcDNA3.1 vector; membrane preparation
Procedure: (§1) Human embryonic kidney 293T (HEK293T) cells were grown and seeded in Dulbecco's modified Eagle's medium with 3.5 mg/mL glucose and 10% fetal bovine serum at 37°C and 5% carbon dioxide. To express the CB1 receptors, HEK293T cells were seeded at 1,000,000 cells/100-mm plate. The following day, cells were transfected via the calcium phosphate method with ∼10 μg of human CB1 receptor cloned into pcDNA3.1[23] Membranes of the transfected cells were prepared as previously described 21 h after transfection.[24]
Approximately 3 μg of membrane preparation expressing CB1 was incubated with nine concentrations of allosteric modulator (1 nM-10 μM). The radiolabeled tracer [[3]H]CP55,940 (150.2 Ci/mmol; Perkin Elmer), an orthosteric agonist of CB1, was added at 0.5 nM. Nonspecific binding was established by treating with a high concentration of unlabeled CP55,940 (10 μM; Tocris). The membranes were incubated at 30°C for 60 min, and the reaction was terminated with the addition of 300 μL of Tris-Mg^2+-EDTA (TME) buffer with 5% bovine serum albumin (BSA). The mixture was harvested by filtration through a Brandel cell harvester with Whatman GF/C filter paper. Liquid scintillation counting was used to measure radioactivity.
To synthesize the target azaindole-2-carboxamides, it requires corresponding azaindole-2-carboxylic acids (i.e., 1b and 8) as the key building blocks (Fig. 2). To access these azaindole-2-carboxylic acids, we used the Hemetsberger–Knittel indole synthesis, which involves Knoevenagel condensation between a pyridinecarbaldehyde and the azido acetate 5.[20] […] In this investigation, the 6-azaindole-2-carboxylic acid 1b was obtained from a commercial source (Achemtek, Worcester, MA). […] At the receptor binding level, when α is >1, the ligand is a positive allosteric modulator, whereas when α is <1, the ligand is a negative allosteric modulator. Accordingly, when α is equal to 1, it indicates no allosteric modulation on orthosteric ligand binding.

[2] = physchem; type: physicochemical; conditions: for solubility thermodynamic at 24 h: 37 °C, pH 7.4, aqueous buffer, thermodynamic from solid
Procedure: The thermodynamic solubility of selected compounds were tested according to previously reported methods.[16],[22] In brief, stock solution of test compound (1 mg/mL) in acetonitrile was prepared and then diluted with mobile phase to prepare the calibration standards in the concentration range of 0.1–50 μg/mL. Following this, 2 mg of test compound powder was suspended in 2 mL of phosphate-buffered saline (PBS; 10 mM) at pH 7.4 and 37°C. The suspension was stirred at 37°C with 800 rpm stirring for 24 h. After completion of the incubation, the saturated suspension was filtered through a syringe polytetrafluoroethylene filter (0.45 μm), which has no absorption for the compounds. 200 μL of the filtrate was diluted with 800 μL acetonitrile immediately to a final volume of 1 mL. Subsequently, 20 μL of this solution was used for the high-performance liquid chromatography (HPLC) analysis, which was analyzed on Shimadzu HPLC (LC model: LC20AB, UV/vis detector: SPD20A; Autosampler: SIL-20A HT) with a Phenomenex reverse phase C18 column (250×3 mm, Luna 5 μm C18 100Å). The HPLC analysis was carried out by using the mixture of acetonitrile and water (60:40 v/v) as the mobile phase with a flow rate of 1 mL/min. The signals were detected at UV wavelength 254 nm. At this wavelength, each peak's area under the curve was measured and used for the quantitative evaluation.

[3] = molecular target: T1, CB1; experiment: [35S]GTPγS binding evaluation (G-protein coupling); type: biochemical; conditions: percent of basal; for [35S]GTPγS binding, allosteric modulator alone: CB1 membranes treated with modulator alone; for [35S]GTPγS binding in the presence of CP55,940: modulator at 5 and 10 μM plus 0.1 μM CP55,940, compared to 0.1 μM CP55,940 alone
Procedure: as §1
To assess the impact of 3c and 3d on G-protein coupling of CB1, GTPγS assays were performed essentially as described previously.[20] […] GTPγS binding assay buffer (50 mM Tris-HCl, pH 7.4, 3 mM MgCl2, 0.2 mM EGTA, and 100 mM NaCl) was added to 200 μL. The membranes were incubated for 1 h at 30°C. To determine nonspecific binding, 10 μM unlabeled GTPγS (Sigma) was used. To determine basal activity, membrane preparations were treated with vehicle (dimethylsulfoxide or DMSO) alone. Termination of the reaction was achieved through filtration using Whatman GF/C filter papers and washing with cold TME buffer. Bound radioactivity was measured by liquid scintillation counting.

[4] = membranes of HEK293T cells expressing CB1, tracer [3H]CP55,940 0.5 nM, 30°C, 60 min
[5] = membranes of HEK293T cells expressing CB1, tracer [3H]CP55,940 0.5 nM, 30°C, 60 min, read-out: KB (equilibrium dissociation constant)

T1 sequence (P21554 whole entry): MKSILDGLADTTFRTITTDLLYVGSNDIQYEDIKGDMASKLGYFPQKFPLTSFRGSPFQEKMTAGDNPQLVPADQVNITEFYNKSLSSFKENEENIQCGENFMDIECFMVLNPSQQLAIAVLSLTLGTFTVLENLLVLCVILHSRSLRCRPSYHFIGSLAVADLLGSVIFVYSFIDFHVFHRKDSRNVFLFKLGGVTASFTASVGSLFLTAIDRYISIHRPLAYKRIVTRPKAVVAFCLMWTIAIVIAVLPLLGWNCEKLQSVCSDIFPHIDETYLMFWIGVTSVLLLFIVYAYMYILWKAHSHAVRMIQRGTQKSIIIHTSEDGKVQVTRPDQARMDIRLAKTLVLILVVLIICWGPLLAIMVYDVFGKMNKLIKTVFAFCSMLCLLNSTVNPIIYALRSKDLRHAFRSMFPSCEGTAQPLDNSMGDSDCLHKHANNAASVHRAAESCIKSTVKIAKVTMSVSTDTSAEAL

CN(C)c1ccc(CCNC(=O)c2cc3cc(Cl)cnc3[nH]2)cc1 [Compound 9a]
KB (equilibrium dissociation constant) [1, 4]: completely lost their binding affinity
Kb [1, 5]: > 10000 nM
solubility in common organic solvents suitable for HPLC sample preparation [2]: exceptionally low solubility
solubility thermodynamic at 24 h [2]: 3 µg/mL (≈ 8.75 µM)

CN(C)c1ccc(CCNC(=O)c2cc3cc(Cl)ncc3[nH]2)cc1 [Compound 3c]
α (binding cooperativity factor) [1]: 3.2
KB (equilibrium dissociation constant) [1, 4]: modest binding affinity
Kb [1, 5]: 2400 nM
solubility thermodynamic at 24 h [2]: 1.6 µg/mL (≈ 4.67 µM)
[35S]GTPγS binding, allosteric modulator alone [3]: inhibition of G-protein coupling was also seen
[35S]GTPγS binding in the presence of CP55,940 [3]: inhibition of GTPγS binding

CN(C)c1ccc(CCNC(=O)c2cc3cc(Cl)ccc3[nH]2)cc1 [Compound 3a]
α (binding cooperativity factor) [1]: 4.2
Kb [1, 5]: 300 nM
Thermodynamic solubility (obtained from experiments) ([2]; 24 h, pH 7.4): 0 µg/mL

O=C(NCCc1ccc(N2CCCCC2)cc1)c1cc2cc(Cl)cnc2[nH]1 [Compound 9b]
KB (equilibrium dissociation constant) [1, 4]: completely lost their binding affinity
Kb [1, 5]: > 10000 nM

O=C(NCCc1ccc(N2CCCCC2)cc1)c1cc2cc(Cl)ccc2[nH]1 [Compound 3b]
Kb [1]: 200 nM
α (binding cooperativity factor) [1]: 5.1

O=C(NCCc1ccc(N2CCCCC2)cc1)c1cc2cc(Cl)ncc2[nH]1 [Compound 3d]
reduction of binding to the CB1 receptor in comparison with indole-2-carboxamide counterpart 3b ([1]; 3d versus 3b): about 25 fold
KB (equilibrium dissociation constant) [1, 4]: modest binding affinity
Kb [1, 5]: 5600 nM
[35S]GTPγS binding, allosteric modulator alone [3]: inhibition of G-protein coupling was also seen
[35S]GTPγS binding in the presence of CP55,940 [3]: inhibition of GTPγS binding
